Laboratory results: US8097620B2, “Diazaquinolones that inhibit prolyl hydroxylase activity” (Amgen Inc., priority 2007, dated 2012)
pIC50: −log10 of the molar value.

Target: HIF PHD2 (Homo sapiens, UniProt Q9GZT9)
Assay: PHD2 inhibition assay (TR-FRET, VCB-Eu detection of hydroxylated P564-HIF1α peptide)
Type: biochemical
Details: 2 nM PHD2, 100 nM P564-HIF1α peptide, 0.25 μM 2-oxoglutarate, 100 μM FeCl2, 2 mM ascorbic acid, pH 6
Description: Inhibition of HIF PHD2 activity was quantified utilizing the TR-FRET technology. HIF PHD2 catalyzes a hydroxyl modification on the proline residue of the P564-HIF1α peptide substrate (Biotin-[…] (SEQ ID NO: 7)) resulting in recognition and binding of the europylated Von Hippel-Lindau protein (pVHL), elongin B and elongin C heterotrimeric (VCB-Eu) complex.
The PHD2 inhibition assay was executed by addition of freshly dissolved FeCl2 to 178.57 μM (100 μM final concentration) in PHD2 Reaction Buffer containing 30 mM MES, pH 6, 10 mM NaCl, 0.25% Brij-35, 0.01% BSA, and 1% DMSO. 28 μL of the iron solution and 2 μL of inhibitor compounds serially diluted in 100% DMSO (5% DMSO final) were added to black polypropylene 96-well microtiter plates. To that, 10 μL of 10 nM PHD2 (2 nM final) was added to all wells of the plate except for the 8 wells of column 12 (LO control), and allowed to incubate at room temperature on the shaker for one hour. Column 6 was the HI control containing PHD2 enzyme and 5% DMSO vehicle, but no inhibitor compound. To initiate the PHD2 enzymatic reaction, 10 μL of a solution containing 500 nM P564-HIF1α peptide (100 nM final), 10 mM ascorbic acid (2 mM final), and 1.25 μM 2-oxoglutarate (α-ketoglutarate; 0.25 μM final) in PHD2 Reaction Buffer was added to all wells of the plate and allowed to incubate on the shaker at room temperature for one hour.
The reaction was terminated by addition of 25 μL TR-FRET Buffer (50 mM TRIS-HCl, pH 9, 100 mM NaCl, 0.05% BSA, and 0.5% Tween-20) containing 150 mM succinate (product inhibitor; 50 mM final), 75 nM streptavidin-APC (25 nM final), and 7.5 nM VCB-Eu (2.5 nM final). The TR-FRET detection reagents were placed on a shaker for 1 hour to reach binding equilibrium before reading on the Discovery platform (PerkinElmer). Europium is excited at 315 nm and phosphoresces at 615 nm with a large Stoke's shift. APC, in turn, emits at 655 nm upon excitation at 615 nm. The TR-FRET signal is measured as the ratio of the APC 655 nm signal divided by the internal europium reference 615 nm emission signal.
The POC (percentage of control) was determined by comparing the signal from hydroxylated peptide substrate in the enzyme reaction containing inhibitor compound with that from PHD2 enzyme with DMSO vehicle alone (HI control), and no enzyme (LO control). POC was calculated using the formula: % control (POC)=(cpd−average LO)/(average HI−average LO)*100. Data (consisting of POC and inhibitor concentration in μM) was fitted to a 4-parameter equation (y=A+((B−A)/(1+((x/C)^D))), where A is the minimum y (POC) value, B is the maximum y (POC), C is the x (cpd concentration) at the point of inflection and D is the slope factor) using a Levenburg-Marquardt non-linear regression algorithm.

Sequence of HIF PHD2 (Q9GZT9 whole entry): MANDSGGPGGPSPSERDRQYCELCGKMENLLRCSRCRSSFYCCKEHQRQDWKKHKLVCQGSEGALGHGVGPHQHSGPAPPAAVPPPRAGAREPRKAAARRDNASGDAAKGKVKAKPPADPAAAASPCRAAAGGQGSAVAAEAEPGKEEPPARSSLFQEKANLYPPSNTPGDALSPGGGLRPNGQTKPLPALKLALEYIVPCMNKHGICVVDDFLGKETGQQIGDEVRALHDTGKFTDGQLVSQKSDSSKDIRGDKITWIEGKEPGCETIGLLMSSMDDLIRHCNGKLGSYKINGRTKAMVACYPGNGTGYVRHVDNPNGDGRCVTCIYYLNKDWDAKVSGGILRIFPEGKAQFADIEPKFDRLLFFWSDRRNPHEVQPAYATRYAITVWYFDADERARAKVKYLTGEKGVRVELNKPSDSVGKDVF

Compound | pIC50
Cn1c(=O)c(C(=O)NCC(=O)O)c(O)c2cnc(-c3ccc(Cl)cc3)nc21 [Example 39, 2-(2-(4-chlorophenyl)-5-hydroxy-8-methyl-7-oxo-7,8-dihydropyrido[2,3-d]pyrimidine-6-carboxamido)acetic acid] | 8.11
Cn1c(=O)c(C(=O)NCC(=O)O)c(O)c2cnc(-c3ccc4sccc4c3)nc21 [Example 51, 2-(2-(benzo[b]thiophen-5-yl)-5-hydroxy-8-methyl-7-oxo-7,8-dihydropyrido[2,3-d]pyrimidine-6-carboxamido)acetic acid] | 8.03
Cn1c(=O)c(C(=O)NCC(=O)O)c(O)c2cnc(N3CCCC3)nc21 [Example 15, 2-(5-hydroxy-8-methyl-7-oxo-2-(pyrrolidin-1-yl)-7,8-dihydropyrido[2,3-d]pyrimidine-6-carboxamido)acetic acid] | 8.13
Cc1ccc(S(=O)(=O)n2cc(-c3ncc4c(O)c(C(=O)NCC(=O)O)c(=O)n(C)c4n3)c3ccccc32)cc1 [Example 58, 2-(5-hydroxy-8-methyl-7-oxo-2-(1-tosyl-1H-indol-3-yl)-7,8-dihydropyrido[2,3-d]pyrimidine-6-carboxamido)acetic acid] | 7.38
COc1ccccc1-c1ncc2c(O)c(C(=O)NCC(=O)O)c(=O)n(C)c2n1 [Example 31, 2-(5-hydroxy-2-(2-methoxyphenyl)-8-methyl-7-oxo-7,8-dihydropyrido[2,3-d]pyrimidine-6-carboxamido)acetic acid] | 8.62
CC(C)Oc1cccc(-c2cc3c(O)c(C(=O)NCC(=O)O)c(=O)n(C)c3nn2)c1 [Example 7, 2-(5-hydroxy-3-(3-isopropoxyphenyl)-8-methyl-7-oxo-7,8-dihydropyrido[2,3-c]pyridazine-6-carboxamido)acetic acid] | 7.59
Cc1cccc(-c2ncc3c(O)c(C(=O)NCC(=O)O)c(=O)n(C)c3n2)c1 [Example 37, 2-(5-hydroxy-8-methyl-7-oxo-2-m-tolyl-7,8-dihydropyrido[2,3-d]pyrimidine-6-carboxamido)acetic acid] | 8.06
Cn1c(=O)c(C(=O)NCC(=O)O)c(O)c2cnc(-c3ccc(N4CCOCC4)cc3)nc21 [Example 29, 2-(5-hydroxy-8-methyl-2-(4-morpholinophenyl)-7-oxo-7,8-dihydropyrido[2,3-d]pyrimidine-6-carboxamido)acetic acid] | 8.43
Cn1c(=O)c(C(=O)NCC(=O)O)c(O)c2cc(Cl)nnc21 [Example 1, 2-(3-chloro-5-hydroxy-8-methyl-7-oxo-7,8-dihydropyrido[2,3-c]pyridazine-6-carboxamido)acetic acid] | 7.62
COc1ncc2c(O)c(C(=O)NCC(=O)O)c(=O)n(C)c2n1 [Example 12, 2-(5-hydroxy-2-methoxy-8-methyl-7-oxo-7,8-dihydropyrido[2,3-d]pyrimidine-6-carboxamido)acetic acid] | 7.74
Cn1c(=O)c(C(=O)NCC(=O)O)c(O)c2cnc(-c3cc4ccccc4[nH]3)nc21 [Example 42, 2-(5-hydroxy-2-(1H-indol-2-yl)-8-methyl-7-oxo-7,8-dihydropyrido[2,3-d]pyrimidine-6-carboxamido)acetic acid] | 8.51
COc1cccc(-c2ncc3c(O)c(C(=O)NCC(=O)O)c(=O)n(C)c3n2)c1 [Example 34, 2-(5-hydroxy-2-(3-methoxyphenyl)-8-methyl-7-oxo-7,8-dihydropyrido[2,3-d]pyrimidine-6-carboxamido)acetic acid] | 8.00
Cn1c(=O)c(C(=O)NCC(=O)O)c(O)c2cc(C3=CCCCC3)nnc21 [Example 6, 2-(3-cyclohexenyl-5-hydroxy-8-methyl-7-oxo-7,8-dihydropyrido[2,3-c]pyridazine-6-carboxamido)acetic acid] | 7.80
Cn1ccc2cc(-c3ncc4c(O)c(C(=O)NCC(=O)O)c(=O)n(C)c4n3)ccc21 [Example 44, 2-(5-hydroxy-8-methyl-2-(1-methyl-1H-indol-5-yl)-7-oxo-7,8-dihydropyrido[2,3-d]pyrimidine-6-carboxamido)acetic acid] | 8.11
Cn1c(=O)c(C(=O)NCC(=O)O)c(O)c2cnc(-c3cnc4ccccc4c3)nc21 [Example 49, 2-(5-hydroxy-8-methyl-7-oxo-2-(quinolin-3-yl)-7,8-dihydropyrido[2,3-d]pyrimidine-6-carboxamido)acetic acid] | 8.49
Cn1c(=O)c(C(=O)NCC(=O)O)c(O)c2cnc(-c3ccco3)nc21 [Example 38, 2-(2-(furan-2-yl)-5-hydroxy-8-methyl-7-oxo-7,8-dihydropyrido[2,3-d]pyrimidine-6-carboxamido)acetic acid] | 8.60
Cn1c(=O)c(C(=O)NCC(=O)O)c(O)c2cnc(N3CCCC4CCCCC43)nc21 (stereo not shown) [Example 21, 2-(5-hydroxy-8-methyl-2-(octahydroquinolin-1(2H)-yl)-7-oxo-7,8-dihydropyrido[2,3-d]pyrimidine-6-carboxamido)acetic acid] | 6.82
CC1CCCCN1c1ncc2c(O)c(C(=O)NCC(=O)O)c(=O)n(C)c2n1 (stereo not shown) [Example 16, 2-(5-hydroxy-8-methyl-2-(2-methylpiperidin-1-yl)-7-oxo-7,8-dihydropyrido[2,3-d]pyrimidine-6-carboxamido)acetic acid] | 7.28
Cn1c(=O)c(C(=O)NCC(=O)O)c(O)c2cnc(-c3ccc(C#N)cc3)nc21 [Example 52, 2-(2-(4-cyanophenyl)-5-hydroxy-8-methyl-7-oxo-7,8-dihydropyrido[2,3-d]pyrimidine-6-carboxamido)acetic acid] | 8.39
Cn1c(=O)c(C(=O)NCC(=O)O)c(O)c2cnc(N3CCCCC3)nc21 [Example 11, 2-(5-hydroxy-8-methyl-7-oxo-2-(piperidin-1-yl)-7,8-dihydropyrido[2,3-d]pyrimidine-6-carboxamido)acetic acid] | 7.80
Cn1c(=O)c(C(=O)NCC(=O)O)c(O)c2cnc(-c3cccc4[nH]ccc34)nc21 [Example 56, 2-(5-hydroxy-2-(1H-indol-4-yl)-8-methyl-7-oxo-7,8-dihydropyrido[2,3-d]pyrimidine-6-carboxamido)acetic acid] | 8.28
Cn1c(=O)c(C(=O)NCC(=O)O)c(O)c2cc(-c3ccccc3)nnc21 [Example 2, 2-(5-hydroxy-8-methyl-7-oxo-3-phenyl-7,8-dihydropyrido[2,3-c]pyridazine-6-carboxamido)acetic acid] | 7.77
CCC1CCCCN1c1ncc2c(O)c(C(=O)NCC(=O)O)c(=O)n(C)c2n1 (stereo not shown) [Example 19, 2-(2-(2-ethylpiperidin-1-yl)-5-hydroxy-8-methyl-7-oxo-7,8-dihydropyrido[2,3-d]pyrimidine-6-carboxamido)acetic acid] | 7.15
Cn1c(=O)c(C(=O)NCC(=O)O)c(O)c2cnc(-c3csc4ccccc34)nc21 [Example 40, 2-(2-(benzo[b]thiophen-3-yl)-5-hydroxy-8-methyl-7-oxo-7,8-dihydropyrido[2,3-d]pyrimidine-6-carboxamido)acetic acid] | 7.89
Cn1c(=O)c(C(=O)NCC(=O)O)c(O)c2cnc(-c3cc4ccccc4s3)nc21 [Example 36, 2-(2-(benzo[b]thiophen-2-yl)-5-hydroxy-8-methyl-7-oxo-7,8-dihydropyrido[2,3-d]pyrimidine-6-carboxamido)acetic acid] | 8.13
CC(C)Oc1ccccc1-c1cc2c(O)c(C(=O)NCC(=O)O)c(=O)n(C)c2nn1 [Example 9, 2-(5-hydroxy-3-(2-isopropoxyphenyl)-8-methyl-7-oxo-7,8-dihydropyrido[2,3-c]pyridazine-6-carboxamido)acetic acid] | 7.85
Cn1c(=O)c(C(=O)NCC(=O)O)c(O)c2cnc(-c3ccc(N4CCCCC4)cc3)nc21 [Example 32, 2-(5-hydroxy-8-methyl-7-oxo-2-(4-(piperidin-1-yl)phenyl)-7,8-dihydropyrido[2,3-d]pyrimidine-6-carboxamido)acetic acid] | 8.28
Cc1ccccc1-c1ncc2c(O)c(C(=O)NCC(=O)O)c(=O)n(C)c2n1 [Example 50, 2-(5-hydroxy-8-methyl-7-oxo-2-o-tolyl-7,8-dihydropyrido[2,3-d]pyrimidine-6-carboxamido)acetic acid] | 8.44
